Values after ≈ are worked out from the molar mass of the structure shown.
Legend:
[1] = target: T1, Leucine-rich repeat serine/threonine-protein kinase 2 (Homo sapiens, UniProt Q5S007); assay: Inhibition of LRRK2 (unknown origin) by HTRF assay
[2] = system: Mus musculus; assay: Volume of distribution at steady state in Swiss albino mouse at 1 mg/kg, iv or 10 mg/kg, po; type: ADME, organism-based; details: in vivo
[3] = Protein binding in mouse brain; type: ADME, tissue-based; details: read-out: PB (converted)
[4] = system: Liver; assay: Intrinsic clearance in human liver microsomes; type: ADME, microsome
[5] = Passive permeability in MDCK cells expressing human MDR1; type: ADME, cell-based, Canis lupus familiaris; details: dog, read-out: permeability
[6] = Half life in Swiss albino mouse at 1 mg/kg, iv or 10 mg/kg, po; type: ADME, organism-based; details: in vivo
[7] = system: Mus musculus; assay: Dose normalized AUC in Swiss albino mouse at 1 mg/kg, iv; type: ADME, organism-based; details: in vivo
[8] = Volume of distribution at steady state in Swiss albino mouse at 1 mg/kg, iv or 2 mg/kg, po; type: ADME, organism-based; details: in vivo, read-out: Vdss
[9] = Half life in Swiss albino mouse at 1 mg/kg, iv or 2 mg/kg, po; type: ADME, organism-based; details: in vivo
[10] = Oral bioavailability in Swiss albino mouse at 2 mg/kg; type: ADME, organism-based; details: in vivo
[11] = target: T2, SRSF protein kinase 3 (Homo sapiens, UniProt Q9UPE1); assay: Inhibition of human MSSK1 using GRSRSRSRSR as substrate at 1uM in presence of [gamma-33P]-ATP
T2 sequence (Q9UPE1 whole entry): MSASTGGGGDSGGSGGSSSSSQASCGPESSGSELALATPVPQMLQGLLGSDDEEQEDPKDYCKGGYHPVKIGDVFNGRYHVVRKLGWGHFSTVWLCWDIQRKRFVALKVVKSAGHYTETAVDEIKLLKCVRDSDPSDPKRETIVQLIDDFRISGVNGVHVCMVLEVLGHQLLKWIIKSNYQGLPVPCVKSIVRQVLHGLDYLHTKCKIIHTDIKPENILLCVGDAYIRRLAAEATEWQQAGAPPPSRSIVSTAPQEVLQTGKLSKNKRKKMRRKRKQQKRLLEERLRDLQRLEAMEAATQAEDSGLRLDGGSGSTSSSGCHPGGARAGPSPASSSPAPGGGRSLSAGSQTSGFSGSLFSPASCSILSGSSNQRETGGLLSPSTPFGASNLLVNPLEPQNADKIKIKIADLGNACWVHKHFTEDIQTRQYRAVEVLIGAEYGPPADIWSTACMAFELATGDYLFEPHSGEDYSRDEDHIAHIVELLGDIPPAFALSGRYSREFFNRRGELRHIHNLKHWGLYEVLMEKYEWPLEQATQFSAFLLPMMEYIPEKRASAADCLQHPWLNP

[12] = target: T2, SRSF protein kinase 3; assay: Inhibition of human MSSK1 GRSRSRSRSR as substrate in presence of [gamma-33P]-ATP
[13] = target: T1, Leucine-rich repeat serine/threonine-protein kinase 2; assay: Inhibition of human LRRK2 using RLGRDKYKTLRQIRQ as substrate at 1uM in presence of [gamma-33P]-ATP
[14] = Solubility of the compound; type: physicochemical
[15] = Blood clearance in Swiss albino mouse at 1 mg/kg, iv or 2 mg/kg, po; type: ADME, organism-based; details: whole blood
[16] = Ratio of drug level in Swiss albino mouse brain to blood at 1 mg/kg, iv or 2 mg/kg, po; type: ADME, organism-based

T1 sequence (Q5S007 whole entry): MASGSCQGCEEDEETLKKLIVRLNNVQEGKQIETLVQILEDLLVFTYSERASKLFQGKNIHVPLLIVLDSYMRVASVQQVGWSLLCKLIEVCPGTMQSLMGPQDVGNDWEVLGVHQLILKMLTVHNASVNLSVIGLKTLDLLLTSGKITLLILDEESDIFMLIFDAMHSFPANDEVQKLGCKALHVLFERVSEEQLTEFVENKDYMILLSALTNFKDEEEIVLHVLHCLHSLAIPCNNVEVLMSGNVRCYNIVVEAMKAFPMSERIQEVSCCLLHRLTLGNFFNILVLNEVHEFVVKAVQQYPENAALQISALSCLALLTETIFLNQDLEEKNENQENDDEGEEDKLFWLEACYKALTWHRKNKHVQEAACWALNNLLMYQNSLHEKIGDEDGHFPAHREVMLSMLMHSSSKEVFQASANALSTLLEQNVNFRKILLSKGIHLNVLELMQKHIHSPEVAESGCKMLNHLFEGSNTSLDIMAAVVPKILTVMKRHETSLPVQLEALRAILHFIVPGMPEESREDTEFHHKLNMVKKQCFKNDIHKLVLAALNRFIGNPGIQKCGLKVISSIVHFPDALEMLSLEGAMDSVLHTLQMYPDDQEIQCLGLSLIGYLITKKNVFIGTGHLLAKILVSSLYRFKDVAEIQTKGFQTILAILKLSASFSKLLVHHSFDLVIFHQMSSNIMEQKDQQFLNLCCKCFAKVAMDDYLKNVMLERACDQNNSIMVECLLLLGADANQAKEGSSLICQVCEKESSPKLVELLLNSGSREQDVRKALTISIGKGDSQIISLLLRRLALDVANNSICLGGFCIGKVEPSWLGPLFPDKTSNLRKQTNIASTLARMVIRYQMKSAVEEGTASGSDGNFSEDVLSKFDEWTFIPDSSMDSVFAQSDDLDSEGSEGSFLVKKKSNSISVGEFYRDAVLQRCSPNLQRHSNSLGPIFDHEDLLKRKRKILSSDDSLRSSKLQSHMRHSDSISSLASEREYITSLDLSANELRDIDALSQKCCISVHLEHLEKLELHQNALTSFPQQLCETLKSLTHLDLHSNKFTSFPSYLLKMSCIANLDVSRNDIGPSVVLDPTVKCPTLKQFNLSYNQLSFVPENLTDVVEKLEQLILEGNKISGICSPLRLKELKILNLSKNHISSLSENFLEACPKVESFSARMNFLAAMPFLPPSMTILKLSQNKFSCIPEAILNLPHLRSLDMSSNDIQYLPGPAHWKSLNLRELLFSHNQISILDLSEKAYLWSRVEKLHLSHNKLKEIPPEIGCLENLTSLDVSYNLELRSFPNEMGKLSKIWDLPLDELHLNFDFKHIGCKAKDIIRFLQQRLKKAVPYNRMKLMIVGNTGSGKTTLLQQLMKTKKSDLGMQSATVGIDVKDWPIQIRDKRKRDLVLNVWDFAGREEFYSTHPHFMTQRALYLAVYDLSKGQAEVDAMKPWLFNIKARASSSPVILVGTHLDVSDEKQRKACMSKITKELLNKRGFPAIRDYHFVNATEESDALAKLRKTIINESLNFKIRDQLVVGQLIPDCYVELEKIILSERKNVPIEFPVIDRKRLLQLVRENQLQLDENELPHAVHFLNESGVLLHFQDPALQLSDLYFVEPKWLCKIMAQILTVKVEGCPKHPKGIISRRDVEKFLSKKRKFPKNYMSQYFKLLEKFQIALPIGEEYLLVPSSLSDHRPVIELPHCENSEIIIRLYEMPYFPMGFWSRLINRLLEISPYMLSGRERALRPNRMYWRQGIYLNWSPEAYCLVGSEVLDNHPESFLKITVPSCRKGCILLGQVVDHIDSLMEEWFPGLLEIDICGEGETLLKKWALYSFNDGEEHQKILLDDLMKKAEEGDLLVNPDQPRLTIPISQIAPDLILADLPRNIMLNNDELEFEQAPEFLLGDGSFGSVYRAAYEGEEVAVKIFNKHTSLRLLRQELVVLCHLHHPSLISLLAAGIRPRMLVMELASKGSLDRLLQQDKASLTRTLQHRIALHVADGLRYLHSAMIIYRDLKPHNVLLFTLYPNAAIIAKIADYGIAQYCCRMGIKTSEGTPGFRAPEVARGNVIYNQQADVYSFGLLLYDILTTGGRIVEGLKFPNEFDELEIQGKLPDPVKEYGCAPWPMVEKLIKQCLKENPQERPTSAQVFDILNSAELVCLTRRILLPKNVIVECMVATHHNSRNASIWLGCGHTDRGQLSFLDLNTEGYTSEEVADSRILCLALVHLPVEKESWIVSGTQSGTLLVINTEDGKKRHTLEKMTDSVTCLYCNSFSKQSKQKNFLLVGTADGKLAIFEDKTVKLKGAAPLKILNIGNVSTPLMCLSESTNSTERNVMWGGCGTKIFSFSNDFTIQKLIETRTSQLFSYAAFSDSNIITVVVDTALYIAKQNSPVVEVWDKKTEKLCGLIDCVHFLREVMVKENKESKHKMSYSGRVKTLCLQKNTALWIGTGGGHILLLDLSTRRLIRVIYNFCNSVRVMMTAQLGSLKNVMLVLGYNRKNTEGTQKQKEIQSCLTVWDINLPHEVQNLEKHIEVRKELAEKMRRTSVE

Row | Compound | IC50 [1] [µM] | fraction unbound [3] | CLH [4] [mL/min/g] | Papp [5] [nm/s] | AUC/dose [7] [ng·h/mL/mg/kg] | Vd [8] [L/kg] | half-life [9] [h] | bioavailability [10] [%] | solubility [14] [µM] | further results
1 | O=C(Nc1cccnc1)c1cc(Br)ccc1OCc1ccccc1F | 0.00794 | – | – | – | – | – | – | – | – | –
2 | O=C(Nc1cccnc1)c1cc(Br)ccc1OCc1cccc(F)c1 | 0.0158 | – | – | – | – | – | – | – | – | –
3 | O=C(Nc1cccnc1)c1cc(-c2ccnc(F)c2)ccc1OCc1ccccc1 | 0.01 | 0.003 | 1.2 | > 100 | 520 | – | – | – | – | Vdss [2]: 2.3 L/kg; half-life [6]: 1.1 h
4 | Cn1cc(-c2ccc(OCc3ccc(F)cc3)c(C(=O)Nc3cccnc3)c2)cn1 | – | – | – | > 100 | 253 | 1.6 | 0.4 | 10 | – | –
5 | O=C(Nc1cccnc1)c1cc(C(F)(F)F)ccc1OCc1ccc(F)cc1 | – | 0.004 | 0.8 | > 100 | 597 | 2.7 | 1.2 | 91.6 | 11 (≈ 4.29 µg/mL) | inhibition [11]: > 40%; IC50 [12]: 0.158 µM; inhibition [13]: > 40%; clearance [15]: 1.66 L/h/kg; Kp [16]: 1.3
6 | O=C(Nc1cccnc1)c1cc(Br)ccc1OCc1ccccc1 | 0.0126 | – | 2.8 | – | – | – | – | – | < 1 | –

Source: ChEMBL document CHEMBL4052807 (Bioorg Med Chem Lett, 2017)
